Measurements: ChEMBL document CHEMBL1201862, “PubChem BioAssay data set” (2004)
Activity calls are given as the source filed them.

Columns and labels:
[1] = Shn3 3'UTR reporter inhibitors, dose response, cell-based, Clone20 osteoblasts, firefly luciferase, cherry-picked (AID 624132); type: functional;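 also: firefly luciferase luminescence from reporter carrying the Shn3 3'UTR in osteoblasts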
[2] = control 3'UTR Renilla luciferase suppression, dose response, counter-screen for Shn3 inhibitor project, cell-based, Clone20-Shn3RL, cherry-picked (AID 624133); type: functional
[3] = system: H9c2; assay: cells; type: functional, cell-based; conditions: Rattus norvegicus, H9c2, Myocardium;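 also: confirmatory concentration-response retest of ultra-high-throughput screening hits for modulation of myocardial damage; cell death induced by hydrogen peroxide oxidative stress; compound pretreatment for 60 min then peroxide exposure for 2 h; potency is for protecting the cells against peroxide damage rather than for killing them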
[4] = inhibitors of SNCA 5'UTR-driven reporter translation, confirmation, H4 neuroglioma cells, luminescence (AID 1988); type: functional, cell-based
[5] = Luminescence Cell-Based Dose Response HTS to Identify Inhibitors of 5'UTR Stem-Loop Driven Prion Protein mRNA Translation in H4 Neuroglioblastoma Cells. [Related pubchem assays: 1827 (Project Summary), 1813 (Primary HTS)]; type: functional
[6] = inhibitors of firefly luciferase expression or activity, dose response, H4 neuroglioma cells, luminescence (AID 1990); type: functional, cell-based
[7] = biological target: T1, Fatty acid synthase (Homo sapiens, UniProt P49327); assay: FAS thioesterase domain inhibitors, dose response, biochemical, endpoint fluorescence intensity, uHTS hits (AID 624327); type: functional;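 also: fluorescence from hydrolysis of an O-methyl fluorescein acyl ester substrate by the enzyme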
T1 sequence (P49327 whole entry, the tested form may be a part): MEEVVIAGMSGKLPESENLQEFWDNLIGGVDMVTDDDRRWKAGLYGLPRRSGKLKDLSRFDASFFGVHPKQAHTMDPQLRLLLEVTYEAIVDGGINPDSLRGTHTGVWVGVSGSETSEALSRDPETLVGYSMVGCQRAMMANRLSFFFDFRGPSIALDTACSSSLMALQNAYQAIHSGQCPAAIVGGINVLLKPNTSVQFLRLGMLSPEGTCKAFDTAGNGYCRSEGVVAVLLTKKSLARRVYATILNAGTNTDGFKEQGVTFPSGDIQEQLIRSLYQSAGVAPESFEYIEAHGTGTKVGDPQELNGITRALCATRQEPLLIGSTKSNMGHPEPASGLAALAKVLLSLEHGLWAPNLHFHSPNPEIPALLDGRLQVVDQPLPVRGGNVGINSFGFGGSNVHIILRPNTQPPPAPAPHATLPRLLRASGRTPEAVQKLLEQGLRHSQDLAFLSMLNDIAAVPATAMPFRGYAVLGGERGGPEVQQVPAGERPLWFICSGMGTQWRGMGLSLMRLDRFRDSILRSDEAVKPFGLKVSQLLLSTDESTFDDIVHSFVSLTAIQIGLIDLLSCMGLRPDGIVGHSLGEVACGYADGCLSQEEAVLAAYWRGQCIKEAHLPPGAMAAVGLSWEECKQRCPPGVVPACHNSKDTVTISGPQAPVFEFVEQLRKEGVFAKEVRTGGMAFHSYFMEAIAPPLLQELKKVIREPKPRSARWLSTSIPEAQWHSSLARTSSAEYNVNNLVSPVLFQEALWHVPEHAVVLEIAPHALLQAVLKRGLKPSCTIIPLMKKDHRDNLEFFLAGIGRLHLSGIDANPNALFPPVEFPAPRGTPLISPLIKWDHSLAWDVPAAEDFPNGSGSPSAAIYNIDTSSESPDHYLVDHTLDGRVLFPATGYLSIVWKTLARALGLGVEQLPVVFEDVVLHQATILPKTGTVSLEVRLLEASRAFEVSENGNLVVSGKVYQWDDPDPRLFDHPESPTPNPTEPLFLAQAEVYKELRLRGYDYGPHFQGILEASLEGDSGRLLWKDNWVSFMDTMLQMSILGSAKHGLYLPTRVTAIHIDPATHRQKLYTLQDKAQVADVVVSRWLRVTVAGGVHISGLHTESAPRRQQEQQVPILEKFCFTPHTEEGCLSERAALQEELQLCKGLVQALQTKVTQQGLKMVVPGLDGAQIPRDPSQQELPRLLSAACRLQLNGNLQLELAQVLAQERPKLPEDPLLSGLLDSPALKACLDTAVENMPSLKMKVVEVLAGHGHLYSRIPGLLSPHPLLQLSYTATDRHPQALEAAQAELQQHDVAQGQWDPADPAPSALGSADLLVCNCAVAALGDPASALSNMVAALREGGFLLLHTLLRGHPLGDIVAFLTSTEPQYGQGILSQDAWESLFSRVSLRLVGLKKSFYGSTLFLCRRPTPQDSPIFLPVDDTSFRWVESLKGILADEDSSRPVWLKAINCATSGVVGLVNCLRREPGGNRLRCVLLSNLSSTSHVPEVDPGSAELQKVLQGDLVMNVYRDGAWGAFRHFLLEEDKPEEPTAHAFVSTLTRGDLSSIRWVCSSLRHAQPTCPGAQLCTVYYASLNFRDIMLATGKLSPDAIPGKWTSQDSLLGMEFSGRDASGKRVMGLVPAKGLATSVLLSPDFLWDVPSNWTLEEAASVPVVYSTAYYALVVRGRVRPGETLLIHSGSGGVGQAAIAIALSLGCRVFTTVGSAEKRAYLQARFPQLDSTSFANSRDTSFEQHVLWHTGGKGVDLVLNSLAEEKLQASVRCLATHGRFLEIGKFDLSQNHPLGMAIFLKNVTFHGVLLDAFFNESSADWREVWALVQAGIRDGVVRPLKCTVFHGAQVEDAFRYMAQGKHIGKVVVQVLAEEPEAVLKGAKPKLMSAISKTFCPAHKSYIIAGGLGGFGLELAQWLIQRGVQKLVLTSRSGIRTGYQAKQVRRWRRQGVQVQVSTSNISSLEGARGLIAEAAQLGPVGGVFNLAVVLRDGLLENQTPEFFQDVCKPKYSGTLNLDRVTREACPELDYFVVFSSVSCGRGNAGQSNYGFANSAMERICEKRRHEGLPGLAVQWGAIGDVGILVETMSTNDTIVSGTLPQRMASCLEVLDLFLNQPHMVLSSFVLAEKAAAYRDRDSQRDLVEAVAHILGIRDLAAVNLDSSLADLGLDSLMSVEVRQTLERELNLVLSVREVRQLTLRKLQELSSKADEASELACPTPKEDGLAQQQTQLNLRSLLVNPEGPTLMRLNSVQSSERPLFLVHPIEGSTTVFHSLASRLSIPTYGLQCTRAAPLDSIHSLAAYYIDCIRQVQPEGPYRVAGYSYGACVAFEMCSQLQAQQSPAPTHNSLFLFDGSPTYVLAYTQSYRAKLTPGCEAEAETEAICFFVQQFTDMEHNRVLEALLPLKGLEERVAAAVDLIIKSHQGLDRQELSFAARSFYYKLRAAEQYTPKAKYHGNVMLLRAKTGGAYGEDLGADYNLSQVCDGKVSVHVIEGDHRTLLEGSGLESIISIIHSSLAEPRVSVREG

[8] = biological target: T1, Fatty acid synthase; assay: FAS thioesterase domain inhibitors, dose response, biochemical, kinetic fluorescence intensity (AID 624326); type: functional;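 also: rate of fluorescence rise from hydrolysis of a fluorogenic O-methyl fluorescein ester substrate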
[9] = biological target: T2, Zinc finger protein mex-5 (Caenorhabditis elegans, UniProt Q9XUB2); assay: MEX-5/TCR-2 RNA interaction inhibitors, dose response, biochemical, C. elegans, fluorescence polarization (AID 1960)
T2 sequence (Q9XUB2 whole entry): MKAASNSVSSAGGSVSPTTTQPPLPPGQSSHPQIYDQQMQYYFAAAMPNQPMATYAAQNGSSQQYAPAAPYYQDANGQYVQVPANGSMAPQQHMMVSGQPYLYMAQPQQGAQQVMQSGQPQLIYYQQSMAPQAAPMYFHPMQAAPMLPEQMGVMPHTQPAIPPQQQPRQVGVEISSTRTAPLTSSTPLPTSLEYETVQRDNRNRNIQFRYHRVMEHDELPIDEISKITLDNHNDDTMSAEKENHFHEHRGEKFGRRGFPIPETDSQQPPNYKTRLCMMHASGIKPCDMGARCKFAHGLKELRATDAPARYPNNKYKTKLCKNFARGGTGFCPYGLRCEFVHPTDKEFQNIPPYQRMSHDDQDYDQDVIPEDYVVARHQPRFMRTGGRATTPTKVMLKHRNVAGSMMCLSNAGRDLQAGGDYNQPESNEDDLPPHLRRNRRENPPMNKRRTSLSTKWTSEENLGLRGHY

[10] = biological target: T3, RNA-binding protein pos-1 (Caenorhabditis elegans, UniProt G5EF15); assay: inhibitors of POS-1/mex-3 RNA binding, dose response, biochemical, fluorescence polarization (AID 1964);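 also: purified POS-1 fused to maltose binding protein made in E. coli; potency of compounds blocking POS-1 binding to fluorescent RNA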
T3 sequence (G5EF15 whole entry): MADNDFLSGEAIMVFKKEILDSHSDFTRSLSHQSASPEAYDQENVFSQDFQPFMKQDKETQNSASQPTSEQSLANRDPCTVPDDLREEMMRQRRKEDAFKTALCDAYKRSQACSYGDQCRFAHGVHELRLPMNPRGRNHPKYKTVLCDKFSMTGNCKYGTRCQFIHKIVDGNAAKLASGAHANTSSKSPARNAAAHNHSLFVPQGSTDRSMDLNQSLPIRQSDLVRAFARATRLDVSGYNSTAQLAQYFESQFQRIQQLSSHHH

[11] = biological target: T4, Calpain-2 catalytic subunit (Sus scrofa, UniProt P43367); assay: pig calpain II inhibitor potency, dose response, biochemical, fluorogenic peptide substrate (AID 1420); type: functional
T4 sequence (P43367 whole entry): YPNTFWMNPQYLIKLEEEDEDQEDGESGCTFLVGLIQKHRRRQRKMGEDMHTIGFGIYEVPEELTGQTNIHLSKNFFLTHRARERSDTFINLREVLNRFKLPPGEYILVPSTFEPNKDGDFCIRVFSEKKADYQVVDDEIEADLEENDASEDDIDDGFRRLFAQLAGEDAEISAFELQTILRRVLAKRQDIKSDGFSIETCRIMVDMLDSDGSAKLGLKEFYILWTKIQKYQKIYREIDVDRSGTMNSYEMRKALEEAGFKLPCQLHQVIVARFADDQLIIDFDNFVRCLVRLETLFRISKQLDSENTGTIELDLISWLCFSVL

[12] = biological target: T5, Corticotropin-releasing factor receptor 2/Corticotropin-releasing factor-binding protein (Homo sapiens, UniProt P24387+Q13324); assay: activators of CRF receptor 2 with binding protein – uHTS hits, confirmation (AID 602473); type: functional; conditions: read-out: EC50_Mean
T5 sequence (Q13324 whole entry): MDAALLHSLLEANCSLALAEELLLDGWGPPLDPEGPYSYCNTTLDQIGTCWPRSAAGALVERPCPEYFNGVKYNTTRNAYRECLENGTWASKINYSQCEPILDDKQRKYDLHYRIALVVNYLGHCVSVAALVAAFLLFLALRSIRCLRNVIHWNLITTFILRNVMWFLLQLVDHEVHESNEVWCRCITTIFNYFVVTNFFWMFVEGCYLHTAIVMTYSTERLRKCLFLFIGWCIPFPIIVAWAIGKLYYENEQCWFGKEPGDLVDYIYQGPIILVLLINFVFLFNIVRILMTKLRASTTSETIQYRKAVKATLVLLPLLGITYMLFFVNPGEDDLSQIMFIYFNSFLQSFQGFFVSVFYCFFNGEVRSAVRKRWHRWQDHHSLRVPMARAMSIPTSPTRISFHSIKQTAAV
T5 sequence (P24387 whole entry): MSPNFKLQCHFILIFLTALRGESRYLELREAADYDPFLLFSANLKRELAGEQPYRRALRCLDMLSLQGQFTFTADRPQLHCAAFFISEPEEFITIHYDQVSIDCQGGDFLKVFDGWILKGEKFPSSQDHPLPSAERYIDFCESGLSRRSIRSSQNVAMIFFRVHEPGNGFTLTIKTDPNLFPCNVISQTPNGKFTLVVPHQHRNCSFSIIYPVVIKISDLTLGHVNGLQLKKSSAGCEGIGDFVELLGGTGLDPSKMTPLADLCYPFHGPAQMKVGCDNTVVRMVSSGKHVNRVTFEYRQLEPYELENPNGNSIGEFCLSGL

[13] = biological target: T5, Corticotropin-releasing factor receptor 2/Corticotropin-releasing factor-binding protein; assay: Dose Response confirmation of uHTS hits for small molecule antagonists of the CRF-binding protein and CRF-R2 receptor complex.; type: functional; conditions: read-out: IC50_Mean
[14] = inhibitors of intracellular T. cruzi replication, confirmation, NIH3T3 host cells, beta-gal luminescence (AID 2044); type: functional, cell-based;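 also: intracellular parasites grown in NIH/3T3 mouse fibroblasts as host cells; luminescent beta-galactosidase reporter signal from transgenic T. cruzi replicating inside host cells; inhibitors lower the luminescence signal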
[15] = cytotoxicity toward NIH3T3 fibroblasts, dose response, counter-screen, cell-based, ATP luminescence, mouse fibroblasts (AID 2010); type: functional;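 also: cells exposed to compound for about 90 hours before reading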
[16] = NIH-3T3 fibroblast cytotoxicity, dose response, cytotoxicity control, cell-based, fluorescence, Alamar Blue, secondary assay (AID 2327); type: functional;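 also: NIH-3T3 mouse fibroblasts cultured with fluconazole at 8 µg/mL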
[17] = system: Streptococcus; assay: Group A Streptococcus viability loss, dose response, counter-screen for streptokinase expression inhibitor project, luminescence, BacTiterGlo (AID 1915); type: functional, organism-based;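 also: potency for reduction of bacterial viability or growth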
[18] = system: Streptococcus sp. 'group A'; assay: growth inhibition of control SK(-) GAS strain, dose response, counter-screen for streptokinase expression inhibitor project, luminescence, kanamycin, BacTiterGlo, confirmation (AID 1900); type: functional, organism-based
[19] = ZM109 Env clade C HIV-1 fusion inhibitors, dose response, HeLa effector, CEM target cells, luciferase, cherry-pick (AID 652058); type: functional, cell-based

SMILES: CCCc1nc([N+](=O)[O-])c(S(=O)(=O)c2ccccc2)n1CC(C)C
- AC50 [1]: 7.39 µM (active)
- AC50 [2]: 25.9 µM (active)

SMILES: Cc1ccc(-c2nnc(O)c3ccccc23)cc1S(N)(=O)=O
- IC50 [3]: 21.8 µM (active)

SMILES: COc1ccc(C2=NOC(Cn3c(Cc4ccc(Cl)cc4)nc4c3c(=O)n(C)c(=O)n4C)C2)cc1 (stereo not drawn)
- EC50 [4]: > 120 µM (not active)
- EC50 [5]: > 120 µM (not active)
- EC50 [6]: > 120 µM (not active)

SMILES: C=CCOC(=O)COc1ccc2c3c(c(=O)oc2c1)CCCC3
- IC50 [3]: 14.5 µM (active)

SMILES: O=C(CSc1nc(O)c2ccccc2n1)c1ccc(O)cc1O
- IC50 [3]: > 79 µM (inactive)

SMILES: O=C(Oc1cccc(N2C(=O)C3C4c5ccccc5C(c5ccccc54)C3C2=O)c1)c1ccco1 (stereo not drawn)
- IC50 [7]: 33.4 µM (inactive)
- IC50 [8]: 28.5 µM (inactive)

SMILES: CCOc1ccccc1N1CCN(C(=O)CNC(=O)c2ccccc2F)CC1
- EC50 [9]: > 300 µM (not active)
- EC50 [10]: > 300 µM (not active)

SMILES: CC(C)OC(=O)CSc1nnc(COc2ccc([N+](=O)[O-])cc2)n1C
- IC50 [11]: 9.11 µM (not active)

SMILES: Cc1c(Cl)c(=O)oc2cc(OCC(=O)N3CCCC(C)C3)ccc12 (stereo not drawn)
- IC50 [7]: 6.55 µM (active)
- IC50 [8]: 10.3 µM (active)

SMILES: Cc1cc(C=C2C(=O)c3ccccc3C2=O)c(C)n1-c1ccc(C(=O)O)cc1
- EC50 [9]: > 300 µM (not active)
- EC50 [10]: > 300 µM (not active)

SMILES: COc1cc(C2C(C#N)=C(N)OC3=C2C(=O)CC(C)(C)C3)cc([N+](=O)[O-])c1O (stereo not drawn)
- EC50 [9]: > 300 µM (not active)
- EC50 [10]: > 300 µM (not active)

SMILES: COc1ccc2[nH]c3c(c2c1)CCN1C(=O)C(CC(=O)NCCC2=CCCCC2)C[C@H](C(=O)N2CCOCC2)[C@@]31CCC1CCCC1 (stereo partly drawn)
- IC50 [7]: 44.9 µM (inactive)
- IC50 [8]: 80 µM (inactive)

SMILES: O=C(Nc1ccccc1)c1nc[nH]c1C(=O)NCCNC(=O)c1[nH]cnc1C(=O)Nc1ccccc1
- IC50 [3]: > 79 µM (inactive)

SMILES: CC(C)(C)c1ccc(OCCC(=O)OCC(=O)NC2CCCCC2)cc1
- IC50 [7]: 8.28 µM (active)
- IC50 [8]: 5.35 µM (active)

SMILES: O=C(CNC(=O)c1[nH]cnc1C(=O)NC(c1ccccc1)c1ccccc1)OCc1ccccc1
- IC50 [3]: > 79 µM (inactive)

SMILES: COc1cc(OC)cc(C(=O)Nc2ccc3c(c2)COC3=O)c1
- IC50 [11]: 5.36 µM (not active)

SMILES: c1ccc(Oc2nc(Oc3ccccc3)nc(N3CCOCC3)n2)cc1
- IC50 [11]: < 0.4 µM (not active)

SMILES: O=C(CCN1C(=O)/C(=C/c2ccc3c(c2)OCO3)SC1=S)Nc1ccccc1
- IC50 [11]: 24.8 µM (not active)

SMILES: Cc1ccc(C(=O)NNC(=O)c2ccc3ncccc3c2)cc1
- IC50 [11]: 9.29 µM (not active)

SMILES: COCCn1cnc2c(c1=O)c1nc3ccccc3nc1n2/N=C/c1cccc(OC)c1
- EC50 [12]: > 53 µM (inactive)
- IC50 [3]: 24.5 µM (active)
- IC50 [13]: > 47.1 µM (inactive)

SMILES: Nc1c(S(=O)(=O)c2cccc(Cl)c2)c2nc3ccccc3nc2n1/N=C/c1ccc(O)c(O)c1
- EC50 [4]: 9.66 µM (active)
- EC50 [14]: 3.16 µM (active)
- EC50 [15]: 6.98 µM (active)
- EC50 [16]: > 160 µM (inconclusive)
- EC50 [5]: 12.5 µM (active)
- EC50 [6]: 11.4 µM (active)

SMILES: COC(=O)N/N=C/c1cn(Cc2ccc(F)cc2)c2ccccc12
- EC50 [4]: 7.94 µM (active)
- EC50 [5]: 12.8 µM (active)
- EC50 [6]: 9.2 µM (active)

SMILES: CSCCC(NS(=O)(=O)c1ccccc1)C(=O)OCc1cc(=O)oc2cc(O)ccc12 (stereo not drawn)
- IC50 [3]: > 79 µM (inactive)

SMILES: COc1ccc(C(=O)NNC2=Nc3cccc4cccc2c34)cc1
- EC50 [4]: > 120 µM (not active)
- EC50 [5]: 16.6 µM (active)
- EC50 [6]: > 120 µM (not active)

SMILES: CC(=O)Nc1nc2ccccc2n1Cc1ccccc1C
- EC50 [4]: 11.5 µM (active)
- EC50 [5]: 14.2 µM (active)
- EC50 [6]: 14.5 µM (active)

SMILES: Cn1nc(CC(=O)N2CCN(c3ccccc3)CC2)c2ccccc2c1=O
- IC50 [11]: 13.1 µM (not active)

SMILES: COc1ccc(OC)c(C2=C/C(=C/c3ccccn3)C(=O)O2)c1
- EC50 [9]: 45.8 µM (active)
- EC50 [10]: > 300 µM (not active)

SMILES: O=C(COc1ccc2c3c(c(=O)oc2c1)CCC3)N1CCN(c2ccccc2)CC1
- IC50 [7]: 12.2 µM (active)
- IC50 [8]: 8.68 µM (active)

SMILES: COc1cc([N+](=O)[O-])cc(/C=N/NC(=O)c2cccnc2)c1O
- EC50 [17]: 1.76 µM (active)
- IC50 [7]: 9.23 µM (active)
- EC50 [18]: 2.99 µM (active)
- IC50 [8]: 9.94 µM (active)

SMILES: O=c1[nH]c(CSc2ncccn2)nc2c1cnn2-c1ccccc1
- EC50 [9]: > 300 µM (not active)
- EC50 [10]: 166 µM (inconclusive)

SMILES: COc1ccc(CCn2c(=O)c3cccnc3n(Cc3ccc([N+](=O)[O-])cc3)c2=O)cc1OC
- IC50 [3]: > 79 µM (inactive)

SMILES: CC(OC(=O)c1ccc(NC(=O)CC#N)cc1)C(=O)NCCC1=CCCCC1 (stereo not drawn)
- AC50 [19]: 0.439 µM (active)

SMILES: C[C@H](NC(=O)C1CCN(S(=O)(=O)c2ccccc2)CC1)C(=O)NCc1ccc(Cl)c(Cl)c1
- IC50 [7]: 12.4 µM (active)
- IC50 [8]: 14.5 µM (active)
